# Source: publication PMC7340446, “Optimization of PTH/PTHrP Hybrid Peptides to Derive a Long‐Acting PTH Analog (LA‐PTH)” (JBMR Plus, 2020)
# Where no end group is shown, it is not given here.
# What was measured:
# [1] = Peptide solubility in aqueous buffers of neutral pH; assay type: physicochemical; conditions: aqueous buffers at neutral pH; approximate
# [2] = test system: thyroparathyroidectomized (TPTX) rats; assay: Repeated daily administration in TPTX rats (11‐day treatment, 12‐day study); assay type: in vivo, rat; conditions: daily s.c. 8.0 nmol/kg
# Method: TPTX rats were injected i.v. or s.c. with vehicle or vehicle containing a PTH peptide, or orally treated once daily with vehicle (medium‐chain triglyceride; Chugai Pharma Manufacturing, Tokyo, Japan) or vehicle containing alfacalcidol (Chugai Pharma Manufacturing) for 11 days. Blood samples were obtained from the tail or jugular vein immediately before and at times after injection. Urine samples at 0 to 8 hours or 8 to 24 hours, were collected in metabolic cages. sCa and uCa, serum inorganic phosphorus (sPi) and urinary phosphorus (uPi), and creatinine (uCre) were measured with an automatic analyzer (7180; Hitachi, Ltd, Chiyoda, Tokyo, Japan). Urinary deoxypyridinoline (uDpD) was measured using a Metra DPD EIA kit (DS Pharma Biomedical, Osaka, Japan), and the data were normalized to the uCre concentrations. Serum FGF23 was measured using FGF23 ELISA assay (Immunodiagnostik AG, Bensheim, Germany). Serum 1,25‐dihydroxyvitamin D [1,25(OH)2D3] levels were determined by a ELISA immunoassay (Immunodiagnostic System Ltd, Bolden, UK).
# Figure 4 Effects of 11‐day treatment (12‐day study) with M‐PTH/PTHrP or alfacalcidol on serum calcium (sCa) in thyroparathyroidectomized (TPTX) rats. TPTX rats were treated for 11 days with daily s.c. injection of either vehicle or M‐PTH/PTHrP, or with daily oral alfacalcidol at the indicated doses, and sham‐surgery control rats were s.c. injected daily with vehicle. The levels of Ca in serum and urine were assessed. Blood samples were collected from the jugular vein at 8 hours (A) and at 24 hours (B) after the last treatment administration, and assessed for total sCa. Total urine was collected in metabolic cages over the time intervals of 0 to 8 hours (C), and 8 to 24 hours (D) and assessed for total urinary Ca. Data are means ± SEM; n = 6 or 5 (2.0 and 4.0 nmol/kg of M‐PTH/PTHrP); *p < 0.05 M‐PTH/PTHrP versus TPTX‐vehicle; #p < 0.05 TPTX vehicle versus sham.
# Supplementary file JBM4-4-e10367-s001.pdf: Figure S1 PTH ligand‐induced cAMP‐signaling responses in GP‐2.3 cells Time course of the cAMP‐dependent luminescence response measured at 2‐minute intervals in the presence of each ligand at 10 nM (Ligand on‐phase) and B) Time course of the cAMP‐dependent luminescence response measured at 2‐minute intervals after washout of unbound ligand (Ligand wash‐out phase). GP‐2.3 cells preloaded with luciferin were treated with a concentration of PTH ligand at a concentration of 10 nM for 30 min, and cAMP‐dependent luminescence was measured at two‐minute intervals (ligand‐on phase). The cells were then removed from the plate reader, rinsed twice with media to remove unbound ligand, and then fresh media containing luciferin but lacking ligand was added and luminescence was assessed for additional 90 min (Ligand wash‐out phase). Data are means (± SEM) of four experiments, each performed in triplicate. Figure S2. In vivo calcemic actions of M‐PTH/PTHrP hybrid analogs in normal rats. The indicated M‐PTH/PTHrP hybrid analogs (sequences are shown in Figure 1) along with PTH(1–34) and PTHrP(1–36) controls, were administered at the indicated doses by i.v. injection, and at the indicated time points blood was collected from the tail vein and measured for ionized calcium (Ca^2+). Panels A‐C represent three separate experiments. Data are means ± SEM; n = 6 or 4 (80 nmol/kg of M‐PTH(1‐11)/PTHrP(12–36), M‐PTH(1‐14)/PTHrP(12–36), M‐PTH(1‐17)/PTHrP(18–36) and 1.25 nmol/kg of M‐PTH(1–30)/PTHrP(31–36)). *p < 0.05 versus Vehicle. Figure S3. Effects of 11 days treatment (12 days study) of M‐PTH/PTHrP on serum 1,25(OH) 2 Vitamin‐D3, urinary deoxypyridinoline (Dpd) and serum FGF23 in TPTX rats. Serum and urine samples obtained from the TPTX and sham control rats of the two‐week daily‐administration experiment shown in Figure 4 were analyzed by ELISA for the indicated markers. A) serum 1,25(OH)2Vitamin‐D3. B) urinary deoxypyridinoline (DpD)/Cre. C) serum FGF23. […]
sequence,measurement,setting,value
"AVAEIQLMHQRAKWIQDLRRRFFLHHLIAEIHTAEI [M‐PTH(1‐14)/PTHrP(15‐36), [Ala^1,3,12,Gln^10,Arg^11,Trp^14]‐PTH(1‐14)/PTHrP(15–36)]",Concentration at which the peptide is poorly soluble,[1],> 300 µg/mL
same,sCa levels,[2]; 8 hours after administration,frank hypercalcemia
same,uCa at 0 to 8 hours and uDpD at 0 to 24 hours,[2]; after the last administration,increased significantly
